For series [1], the system named is HIV NL4-3-GFP-I in SupT1 cells. Kind of series: Infection assay in SupT1 cells, GFP flow cytometry. Type of series: cell-based, HIV-1. The settings on record: for Antiviral activity: SupT1 cells, at 10-fold lower concentration than threshold toxic concentration. As to the method:
(§1) CD4^+ T cells were harvested from normal donors and cultured in Roswell Park Memorial Institute medium (RPMI) supplemented with 2 mM L-glutamine (Life Technologies, Merelbeke, Belgium), 10% (v/v) heat-inactivated foetal calf serum (Hyclone, Thermo Fisher Scientific, Waltham, MA), 100 U/mL penicillin and 100 µg/mL streptomycin (Life Technologies), 20 ng/mL interleukin-2 (IL-2; specific activity 10 U/ng, Peprotech, London, UK), and with 1 µg/mL phytohemagglutinin (PHA) mitogen (Thermo Fisher Scientific), 72 h prior to infection, as described earlier. SupT1 cells were maintained at maximum 500,000 cells/mL, in Iscove’s Modified Dulbecco’s Medium (IMDM) supplemented with 2 mM L-glutamine (Life Technologies) and 10% (v/v) heat-inactivated foetal calf serum (Hyclone, Thermo Fisher Scientific, Waltham, MA), as described earlier.
(§2) Lyophilised compound was dissolved in dimethyl sulfoxide to a concentration of 5 mM, and further diluted in cell culture medium (SupT1: IMDM and CD4^+ T cells: RPMI). Cells were incubated 2 h prior infection in appropriate medium as described above, now also supplemented with diluted compound. Subsequently, cells (SupT1: 50,000 per 96 well, CD4^+ T cells: 250,000 per 96 well) were infected with HIV (HIV NL4–3-GFP-I, an infectious virus expressing green fluorescent protein (GFP) from gfp-IRES-nef mRNA expressed from the nef locus, as described earlier. Medium was as described above, now also supplemented with diluted compound (For CD4^+ T cells, PHA was left out). Medium was refreshed after 24 h, keeping compound and supplement concentrations constant. After 72 h, cells were harvested, measured by flow cytometry for GFP expression and counted, using a MACSQuant flow cytometer (Miltenyi Biotec, Bergisch Gladbach, Germany). Infection rate measured by GFP expression was between 6 and 20%. Cell numbers were used to measure cytotoxicity (cell numbers in non-infected cultures supplemented with compound were compared to cell numbers obtained in parallel cultures without compound added: a reduction with more than 10% was considered to indicate cytotoxicity).

For a further series, the system named is SupT1 cells. Kind of series: Cytotoxicity from cell numbers in non-infected SupT1 cultures. The format is cell-based. Particulars: concentration at which toxicity is observed in 10-fold titration series. As for the experimental part: as §1, §2
First, toxicity of the compounds was determined in SupT1 cells. Since even minor toxicity affects the support of viral replication by the cell, compounds should be active well below threshold toxic concentration (i.e. concentration at which toxicity is observed in 10-fold titration series).

For another series, the target named is T1, HIV-1 RT (Human immunodeficiency virus type 1 group M subtype B, UniProt P04585).
T1 construct: Because HIV-1 reverse transcriptase (RT) has a low fidelity; purchased Roche, Basel, Switzerland
Kind of series: HIV RT inhibitory activity, colorimetric Reverse Transcriptase Assay kit (Roche). Type of series: biochemical. As for the experimental part:
HIV RT inhibitory activity of the new compounds was measured using the colorimetric Reverse Transcriptase Assay kit (Roche, Basel, Switzerland). […] Averaged results from at least two measurements were used to obtain an inhibition curve. IC50 values were obtained by interpolating the curve using non-linear regression.

A short description of series [2]: Aqueous solubility by weighing dried aliquots. Particulars: ultrapure deionised water, room temperature, pH =7. Type of series: physicochemical. As to the method:
Substances were dissolved in ultrapure deionised water at room temperature up to concentrations of 50 g/L. Solutions were centrifuged and their aliquots were transferred into weighed glass vials (d = 0.01 mg). The samples were dried under reduced pressure and the vials were weighed again. The solubility was calculated from mass difference divided by sample volume.

The conditions of series [3]: ref Janssen et al.[15]; cited from earlier work.
The mark [4] stands for this setting: HIV-1 RT, 2 ng enzyme, at least two measurements, read-out: IC50.
The mark [5] stands for this setting: thermodynamic from solid, read-out: Solubility.

Converted amounts (≈) assume the structure as drawn. Where two headings read alike, the source gives them in different places. Marks after values point to notes of the source that are not given here. A value given as a limit tells only on which side of the number the result lay.

With `Cc1ccnc2c1NC(=O)c1cccnc1N2C1CC1` [NVP, nevirapine, reference compound], the 50% inhibitory concentration (IC50) in series [1] (Human immunodeficiency virus 1, NL43, SUP-T1, read-out: IC50 (infection rate), reference run in parallel) stood at 0.04 µM. Besides, in series [1], the Antiviral activity entry was “+”. In the series on SupT1 cells, this compound registered a Threshold toxicity of 50 µM.

As for `N#Cc1cc(Cl)cc(Oc2cc(OCC(=O)c3ccc(OCC(=O)O)cc3)ccc2Cl)c1` [Compound 7a], the IC50 at HIV-1 RT (setting [4]) was found to be 1.23 ± 0.05 µM. In addition, in series [2] (setting [5]), the Solubility is 13.1 mg/mL (≈ 27.7 mM). This compound gave a Threshold toxicity in the series on SupT1 cells of 5 µM.

`O=C([O-])COc1ccc(C(=O)COc2ccc(Cl)c(Oc3cc(Cl)cc(Cl)c3)c2)cc1.[K+]` [Compound 7b] returned an IC50 at HIV-1 RT of 6.75 ± 0.5 µM. In series [1], the Antiviral activity result is on record as “+”. The Solubility in series [2] (setting [5]) was determined as 4.3 mg/mL. In the series on SupT1 cells, this compound returned a Threshold toxicity of 50 µM.

Turning to `Cc1cc(/C=C/C#N)cc(C)c1Nc1ccnc(Nc2ccc(C#N)cc2)n1` [RPV, rilpivirine, reference compound], the Solubility in series [3] is 0.00002 ^b g/L. Further, the half-inhibitory concentration (IC50) at HIV-1 RT (setting [4]) worked out at 0.32 ± 0.04 µM. Besides, the Antiviral activity result in series [1] is “+”. Further, the Threshold toxicity in the series with SupT1 cells is 0.5 µM.

Regarding `Cc1cc(OCC(=O)[O-])ccc1C(=O)COc1cc(Cl)ccc1Oc1cc(Cl)cc(C#N)c1.[K+]` [Compound 8d], the IC50 on HIV-1 RT (setting [4]) was determined as 4.7 ± 0.7 µM. In series [2], this compound registered a Solubility of 14.4 mg/mL. The same compound showed a Threshold toxicity in the series with SupT1 cells of 50 µM.

For `Cc1cc(C(=O)COc2cc(Cl)ccc2Oc2cc(Cl)cc(C#N)c2)ccc1OCC(=O)[O-].[K+]` [Compound 8e], the half-inhibitory concentration (IC50) on HIV-1 RT (setting [4]) was 3.07 ± 0.22 µM. In series [1], the Antiviral activity result is given as “+”. The compound also registered a Solubility in series [2] of 39.9 mg/mL. In the series on SupT1 cells, this compound had a Threshold toxicity of 50 µM.

On to `N#Cc1cc(Cl)cc(Oc2ccc(Cl)cc2OCC(=O)c2ccc(OCC(=O)O)cc2)c1` [Compound 8a], for which the IC50 at HIV-1 RT (setting [4]) turned out to be 23.4 ± 1.6 µM. Besides, the Solubility in series [2] (setting [5]) was greater than 50 mg/mL. Further, in the series on SupT1 cells, the Threshold toxicity is on record as 50 µM.

For the compound `N#Cc1cc(Cl)cc(Oc2cccc(OCC(=O)c3ccc(OCC(=O)[O-])cc3)c2)c1.[K+]` [Compound 7d], the IC50 at HIV-1 RT (setting [4]) amounted to 9.78 ± 0.67 µM. Moreover, in series [2], the Solubility is greater than 50.0 mg/mL. This compound also displayed a Threshold toxicity in the series on SupT1 cells of 50 µM.

On to `Cc1cc(C(=O)COc2ccc(Cl)c(Oc3cc(Cl)cc(C#N)c3)c2)ccc1OCC(=O)[O-].[K+]` [Compound 7g], for which the concentration for half-maximal inhibition (IC50) at HIV-1 RT (setting [4]) worked out at 0.65 ± 0.03 µM. In series [1], the Antiviral activity result is reported as “+”. Besides, the Solubility in series [2] turned out to be 3.8 mg/mL. Also, in the series on SupT1 cells, the Threshold toxicity worked out at 50 µM.

Consider `Cc1cc(OCC(=O)[O-])ccc1C(=O)COc1ccc(Cl)c(Oc2cc(Cl)cc(C#N)c2)c1.[K+]` [Compound 7f], for which the IC50 on HIV-1 RT (setting [4]) amounted to 4.71 ± 0.43 µM. Also, in series [1], the Antiviral activity result was “+”. This compound registered a Solubility in series [2] of 8.9 mg/mL. Further, the Threshold toxicity in the series with SupT1 cells was greater than 50 µM.

Regarding `N#Cc1cc(Cl)cc(Oc2cc(Cl)cc(OCC(=O)c3ccc(OCC(=O)[O-])cc3)c2)c1.[K+]` [Compound 7c], the IC50 at HIV-1 RT (setting [4]) stood at 8.3 ± 1.3 µM. The compound also displayed a Solubility in series [2] greater than 50.0 mg/mL. The compound also yielded a Threshold toxicity in the series with SupT1 cells of 50 µM.

Consider `N#Cc1cc(Cl)cc(Oc2cc(Cl)ccc2OCC(=O)c2ccc(Oc3ccc(OCC(=O)[O-])cc3)cc2)c1.[K+]` [Compound 8f], for which, at HIV-1 RT (setting [4]), the IC50 came to 1.27 ± 0.05 µM. The same compound gave a Solubility in series [2] greater than 50.0 mg/mL. The compound further displayed a Threshold toxicity with SupT1 cells of 5 µM.
